# Assay results taken from patent publication US20230099344A1, “COMPOUNDS AND METHODS FOR THE TARGETED DEGRADATION OF IRAK-4” (Arvinas Operations, Inc., priority 2021, published 2023).
# What was measured:
# Assay type in all cases: cell-based
# IL6 [1] = assay: LPS stimulated IL6 inhibition assay in PBMC; conditions: Homo sapiens, PBMC, 24 h, human PBMCs, LPS stimulation, compound overnight, IL6 by MSD after 24 hrs; for Dmax: read-out: LPS Stim IL6 inhibition Dmax; for IC50: read-out: LPS stim IL6 inhibition IC50
# Description: (§1) IL-1β, LPS, or R848 Stimulated IL6 Inhibition and IL-1β Stimulated IL8 Inhibition Assay
# (§2) Human PBMC cells were seeded at 2.0×10^6 cells/mL, treated with compound overnight, and dosed with the EC50 concentration of each stimulant (either IL-1B. LPS, or R848) was determined for each donor. After 24 hrs, media was collected and analyzed by MSD for IL6 and/or IL8 levels.
# IL6 [2] = assay: R848 stimulated IL6 inhibition assay in PBMC; conditions: PBMC, human PBMCs, R848 stimulation, compound overnight, IL6 by MSD after 24 hrs; for Dmax: Homo sapiens, 24 h, read-out: R848 stim IL6 inhibition Dmax; for IC50: read-out: R848 stim IL6 inhibition IC50
# Description: as §1, §2
# IRAK-4 = molecular target: T1, IRAK-4 (Homo sapiens, UniProt Q9NWZ3); assay: IRAK-4 ELISA, PBMC degradation; design: endogenous in cells; host or cells: PBMC; conditions: treated overnight
# T1 sequence (Q9NWZ3 1-460): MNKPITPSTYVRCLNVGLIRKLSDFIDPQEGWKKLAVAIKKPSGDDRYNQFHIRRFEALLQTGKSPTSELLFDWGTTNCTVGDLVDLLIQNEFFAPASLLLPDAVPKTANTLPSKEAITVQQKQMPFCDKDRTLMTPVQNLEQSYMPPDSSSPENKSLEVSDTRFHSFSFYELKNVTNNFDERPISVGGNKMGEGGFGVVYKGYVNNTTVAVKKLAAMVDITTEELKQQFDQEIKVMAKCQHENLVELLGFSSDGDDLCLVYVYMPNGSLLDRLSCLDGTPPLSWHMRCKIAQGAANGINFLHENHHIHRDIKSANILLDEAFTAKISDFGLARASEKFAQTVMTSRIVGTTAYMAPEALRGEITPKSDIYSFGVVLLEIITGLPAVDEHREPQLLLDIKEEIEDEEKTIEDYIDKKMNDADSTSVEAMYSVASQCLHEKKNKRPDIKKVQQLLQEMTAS
# Outline: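 ELISA quantification of cellular IRAK-4 after compound treatment overnight; PBMC were plated at 2×10^6/ml, OCI-Ly10 at 1×10^6/ml.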
SMILES,Dmax (IL6 [1]) [%],IC50 (IL6 [1]) [nM],Dmax (IL6 [2]) [%],IC50 (IL6 [2]) [nM],DC50 (IRAK-4) [nM],Dmax (IRAK-4) [%],PBMC DC90 (IRAK-4)
O=C1CCC(N2C(=O)c3ccc(N4CCN(C[C@H]5CC[C@H](N6Cc7cc(NC(=O)c8cnn9cccnc89)c(N8CCN(CC(F)F)CC8)cc7C6=O)CC5)CC4)cc3C2=O)C(=O)N1 (stereo partly drawn) [371′],< 70,10 to 50,≥ 90,10 to 50,1 to 5,≥ 90,B (B represents a DC90 value ≥10.0 nM and <25.0 nM)
CC(C)Oc1cc2c(cc1NC(=O)c1cnn3cccnc13)CN(C[C@@H](F)C1CN(CC3CCN(c4ccc5c(c4)C(=O)N(C4CCC(=O)NC4=O)C5=O)CC3)C1)C2=O (stereo partly drawn) [Example 19],80 to 90,10 to 50,≥ 90,10 to 50,1 to 5,80 to 90,A (A represents a DC90 value <10.0 nM)
CC(C)Oc1cc2c(cc1NC(=O)c1cnn3cccnc13)CN(C1CCN(CC3CCN(c4ccc5c(c4F)CN(C4CCC(=O)NC4=O)C5=O)CC3)CC1)C2=O (stereo not drawn) [Example 41],70 to 80,10 to 50,≥ 90,< 10,< 1,80 to 90,A (A represents a DC90 value <10.0 nM)
O=C1CCC(N2C(=O)c3ccc(N4CCC(CN5CCC(N6Cc7cc(NC(=O)c8cnn9cccnc89)c(OCC(F)F)cc7C6=O)CC5)CC4)cc3C2=O)C(=O)N1 (stereo not drawn) [Example 42],< 70,50 to 100,< 70,< 10,1 to 5,≥ 90,B (B represents a DC90 value ≥10.0 nM and <25.0 nM)
CC(C)Oc1cc2c(cc1NC(=O)c1cnn3cc(Cl)cnc13)CN(C1CCN(CC3CCN(c4ccc5c(c4)C(=O)N(C4CCC(=O)NC4=O)C5=O)CC3)CC1)C2=O (stereo not drawn) [Example 43],< 70,< 10,80 to 90,10 to 50,1 to 5,≥ 90,B (B represents a DC90 value ≥10.0 nM and <25.0 nM)
CN1CC(Oc2cc3c(cc2NC(=O)c2cnn4cccnc24)CN(C2CCN(CC4CN(c5ccc6c(c5)C(=O)N(C5CCC(=O)NC5=O)C6=O)C4)CC2)C3=O)C1 (stereo not drawn) [Example 44],70 to 80,50 to 100,≥ 90,10 to 50,≥ 10,80 to 90,D (D represents a DC90 value ≥50 nM)
O=C1CCC(N2Cc3ccc(N4CCC(CN5CCC(N6Cc7cc(NC(=O)c8cnn9cccnc89)c(OCC(F)F)cc7C6=O)CC5)CC4)cc3C2=O)C(=O)N1 (stereo not drawn) [Example 45],70 to 80,10 to 50,≥ 90,< 10,1 to 5,≥ 90,A (A represents a DC90 value <10.0 nM)
CC(C)Oc1nc2c(cc1NC(=O)c1cnn3cccnc13)CN(C1CCN(CC3CCN(c4ccc5c(c4)C(=O)N(C4CCC(=O)NC4=O)C5=O)CC3)CC1)C2=O (stereo not drawn) [Example 46],70 to 80,10 to 50,≥ 90,10 to 50,1 to 5,≥ 90,A (A represents a DC90 value <10.0 nM)
CC(C)Oc1cc2c(cc1NC(=O)c1cnn3cccnc13)CN(C1CCN(CC3CCN(c4ccc5c(c4)C(=O)N([C@@H]4CCC(=O)NC4=O)C5=O)CC3)CC1)C2=O [Example 47],80 to 90,10 to 50,80 to 90,10 to 50,1 to 5,≥ 90,A (A represents a DC90 value <10.0 nM)
CC(C)Oc1cc2c(cc1NC(=O)c1cnn3cccnc13)CN(C1CCN(CC3CCN(c4ccc5c(c4)C(=O)N([C@H]4CCC(=O)NC4=O)C5=O)CC3)CC1)C2=O [Example 48],70 to 80,10 to 50,≥ 90,10 to 50,< 1,≥ 90,A (A represents a DC90 value <10.0 nM)
O=C1CCC(N2Cc3ccc(N4CCC(CN5CCC(N6Cc7cc(NC(=O)c8cnn9cccnc89)c(N8CCC(N9CCC9)CC8)cc7C6=O)CC5)CC4)cc3C2=O)C(=O)N1 (stereo not drawn) [Example 49],≥ 90,< 10,≥ 90,< 10,< 1,≥ 90,A (A represents a DC90 value <10.0 nM)
O=C1CCC(N2Cc3cc(N4CCC(CN5CCC(N6Cc7cc(NC(=O)c8cnn9cccnc89)c(N8CCN(CC(F)F)CC8)cc7C6=O)CC5)CC4)ccc3C2=O)C(=O)N1 (stereo not drawn) [Example 50],< 70,10 to 50,≥ 90,10 to 50,< 1,≥ 90,A (A represents a DC90 value <10.0 nM)
O=C1CCC(N2Cc3c(ccc(N4CCC(CN5CCC(N6Cc7cc(NC(=O)c8cnn9cccnc89)c(N8CCN(CC(F)F)CC8)cc7C6=O)CC5)CC4)c3F)C2=O)C(=O)N1 (stereo not drawn) [Example 51],< 70,50 to 100,≥ 90,10 to 50,< 1,≥ 90,A (A represents a DC90 value <10.0 nM)
O=C1CCC(N2C(=O)c3ccc(N4CCC(CN5CCC(N6Cc7cc(NC(=O)c8cnn9cccnc89)c(N8CCN(CC(F)F)CC8)cc7C6=O)CC5)CC4)cc3C2=O)C(=O)N1 (stereo not drawn) [Example 52],80 to 90,10 to 50,80 to 90,10 to 50,1 to 5,≥ 90,A (A represents a DC90 value <10.0 nM)
O=C1CCC(N2C(=O)c3ccc(N4CCC(CN5CCC(N6Cc7cc(NC(=O)c8cnn9cccnc89)c(N8CCN(C9CC(F)(F)C9)CC8)cc7C6=O)CC5)CC4)cc3C2=O)C(=O)N1 (stereo not drawn) [Example 53],< 70,50 to 100,70 to 80,10 to 50,1 to 5,≥ 90,B (B represents a DC90 value ≥10.0 nM and <25.0 nM)
O=C1CCC(N2Cc3cc(N4CCC(CN5CCC(N6Cc7cc(NC(=O)c8cnn9cccnc89)c(N8CCN(C9CC(F)(F)C9)CC8)cc7C6=O)CC5)CC4)ccc3C2=O)C(=O)N1 (stereo not drawn) [Example 54],< 70,< 10,80 to 90,10 to 50,1 to 5,≥ 90,A (A represents a DC90 value <10.0 nM)
O=C1CCC(N2Cc3c(ccc(N4CCC(CN5CCC(N6Cc7cc(NC(=O)c8cnn9cccnc89)c(N8CCN(C9CC(F)(F)C9)CC8)cc7C6=O)CC5)CC4)c3F)C2=O)C(=O)N1 (stereo not drawn) [Example 55],< 70,< 10,≥ 90,10 to 50,< 1,≥ 90,A (A represents a DC90 value <10.0 nM)
Cc1cnc2c(C(=O)Nc3cc4c(cc3OC(C)C)C(=O)N(C3CCN(CC5CCN(c6ccc7c(c6)C(=O)N(C6CCC(=O)NC6=O)C7=O)CC5)CC3)C4)cnn2c1 (stereo not drawn) [Example 56],70 to 80,< 10,≥ 90,10 to 50,1 to 5,≥ 90,A (A represents a DC90 value <10.0 nM)
CC(C)Oc1cc2c(cc1NC(=O)c1cnn3cccnc13)CN(C1CCN(CC3CCN(c4ccc5c(c4)C(=O)N(C4CCC(=O)NC4=O)C5)CC3)CC1)C2=O (stereo not drawn) [Example 105],70 to 80,≥ 100,80 to 90,50 to 100,≥ 10,–,D (D represents a DC90 value ≥50 nM)
CC(C)Oc1cc2c(cc1NC(=O)c1cnn3cccnc13)CN(C1CCN(CC3(F)CN(c4ccc5c(c4)C(=O)N(C4CCC(=O)NC4=O)C5)C3)CC1)C2=O (stereo not drawn) [Example 106],80 to 90,≥ 100,≥ 90,10 to 50,1 to 5,≥ 90,A (A represents a DC90 value <10.0 nM)
CC(C)Oc1cc2c(cc1NC(=O)c1cnn3cccnc13)CN(C1CCN(CC3(F)CN(c4ccc5c(c4F)CN(C4CCC(=O)NC4=O)C5=O)C3)CC1)C2=O (stereo not drawn) [Example 107],≥ 90,10 to 50,≥ 90,50 to 100,1 to 5,70 to 80,A (A represents a DC90 value <10.0 nM)
CC(C)Oc1cc2c(cc1NC(=O)c1cnn3cccnc13)CN(C1CCN(CC3(F)CN(c4cc(F)c5c(c4)C(=O)N(C4CCC(=O)NC4=O)C5)C3)CC1)C2=O (stereo not drawn) [Example 108],80 to 90,10 to 50,≥ 90,10 to 50,1 to 5,≥ 90,B (B represents a DC90 value ≥10.0 nM and <25.0 nM)
